From patent US20160256560A1, “Environmentally Sensitive Compositions” (priority 2010, published 2016)
Where two headings read alike, the source gives them in different places. *1 amine or outer side, *2 acyl side, *3 side chain or, on linkers, in order; H or OH if unused. Where a SMILES comes first, the peptide text is derived from it. Bridges are numbered along the chain shown (N, C = ends). Where no end group is shown, it is not given here. [ ]: non-standard residue; d: D form. ξ: configuration not given here. ξTrp(2-yl) = O=C(C(Cc1c([*:3])[nH]c2ccccc12)N[*:1])[*:2]; X1 = CC(O)(CO)CC(N[*:1])C(=O)[*:2]; Hyp = O=C(O)[CH]1C[CH](O)CN1

Legend:
[1] = target: Rabbit muscle actin, polymerized filamentous actin (F-actin) (rabbit) (UniProt P68135); assay: fluorescence anisotropy (ex 570 nm / em 610 nm), titration of phallTxR by F-actin; value for unbound tracer
[2] = target: Rabbit muscle actin, polymerized filamentous actin (F-actin) (rabbit) (UniProt P68135); assay: fluorescence anisotropy (ex 570 nm / em 610 nm), separate titration of phallTxR by F-actin without competitor; value for fully bound tracer
tumor = details: in vivo
physchem [3] = assay: physchem
HeLa cells [4] = test system: HeLa cells
JC cells = details: pH 6.1
[5] = type: in vitro ADME; details: pH 6.2
[6] = Membrane affinity and insertion kinetics of variants Var1-16; type: physicochemical; details: relative to WT pHLIP
[7] = type: physicochemical; details: absorbance at 300 nm
Protocol: Peptides were labeled at the C-terminal Cys residues using the membrane-impermeable compound maleimide-PEG2-biotin (Thermo Scientific), which has a long polar spacer arm of 29.1 Å that allows adequate biotin binding to avidin. The synthesis reaction was performed in 10 mM phosphate buffer, pH 7.5 (overnight incubation at 4° C.). Reaction products were purified by HPLC, and the mass of the biotin-labeled peptides checked by MALDI-TOF mass spectrometry. The octanol/water partition coefficient of maleimide-PEG2-biotin was determined experimentally by measuring the absorbance at 300 nm in the aqueous and octanol (previously pre-equilibrated with water) phases after a 2 h vortexing. A log P value of −1.07±0.02 was obtained. […] (Kuyper et al., 2006, J. Am. Chem. Soc. 128(10), 3233-40).

HeLa cells [8] = type: cell-based, human
[9] = Stopped-flow fluorescence and CD kinetics of insertion/folding and exit/unfolding; type: physicochemical
GFP fluorescent tumors = details: mouse, in vivo
[10] = Analytical ultracentrifugation, sedimentation velocity; type: physicochemical; details: 7 μM, pH 8
[11] = mouse, in vivo
HeLa cells [12] = type: cell-based, human; details: 1 uM, pH 6.2, 1.5 h
actin filaments = details: read-out: Kd, binding to actin filaments; cited from earlier work
physchem [13] = assay: physchem; remark: listed apart in the source
HeLa tumors = details: mouse, in vivo
[14] = in vivo; cited from earlier work
[15] = Solubility / aggregation of pHLIP variants at pH 8

Texas Red-X phalloidin (peptide)
fluorescence anisotropy [1]: 0.04
fluorescence anisotropy [2]: 0.24

AAEQNPIYWARYADWLFTTGLLLLDLALLVDADEGT [P20G]
Findings: biodistribution / blood clearance (tumor): Goes the liver
pKa (physchem [3]): ~6.7

CC[C@H](C)[C@H](NC(=O)[C@@H]1CCCN1C(=O)[C@H](CC(N)=O)NC(=O)[C@H](CCC(N)=O)NC(=O)[C@H](CCC(=O)O)NC(=O)[C@H](C)NC(=O)[C@H](C)NC(C)=O)C(=O)N[C@@H](Cc1ccc(O)cc1)C(=O)N[C@@H](Cc1c[nH]c2ccccc12)C(=O)N[C@@H](C)C(=O)N[C@@H](CCCNC(=N)N)C(=O)N[C@@H](Cc1ccc(O)cc1)C(=O)N[C@@H](C)C(=O)N[C@@H](CC(=O)O)C(=O)N[C@@H](Cc1c[nH]c2ccccc12)C(=O)N[C@@H](CC(C)C)C(=O)N[C@@H](Cc1ccccc1)C(=O)N[C@H](C(=O)N[C@H](C(=O)N1CCC[C@H]1C(=O)N[C@@H](CC(C)C)C(=O)N[C@@H](CC(C)C)C(=O)N[C@@H](CC(C)C)C(=O)N[C@@H](CC(C)C)C(=O)N[C@@H](CC(=O)O)C(=O)N[C@@H](CC(C)C)C(=O)N[C@@H](C)C(=O)N[C@@H](CC(C)C)C(=O)N[C@@H](CC(C)C)C(=O)N[C@H](C(=O)N[C@@H](CC(=O)O)C(=O)N[C@@H](C)C(=O)N[C@@H](CC(=O)O)C(=O)N[C@@H](CCC(=O)O)C(=O)NCC(=O)N[C@H](C(=O)N[C@@H](CCCCNC(=O)c1ccc(-c2c3ccc(N(C)C)cc3[o+]c3cc(N(C)C)ccc23)c(C(=O)[O-])c1)C(=O)N[C@@H](CSSCCC(=O)NC[C@](C)(O)C[C@@H]1NC(=O)[C@@H]2Cc3c([nH]c4ccccc34)SC[C@H](NC(=O)[C@@H]([C@H](C)O)NC(=O)[C@H](C)NC1=O)C(=O)N1C[C@@H](O)C[C@H]1C(=O)N[C@@H](C)C(=O)N2)C(=O)NCC(=O)O)[C@@H](C)O)C(C)C)[C@@H](C)O)[C@@H](C)O [pHLIP-K(rho)C(aph)]
effect on cell growth (HeLa cells [4]; pH 7.4): did not have any effect on cell growth
inhibition of JC growth (JC cells): 78%
multinucleation (HeLa or M4A4 cells): became multinucleated
cytoskeletal immobilization on trypsinization / cytotoxic morphology (HeLa or M4A4 cells; pH 6.1): exhibited a reduced ability to contract
inhibition of M4A4 proliferation (M4A4 cells; pH 6.2): 92%
decomposition during cell incubation (HPLC) [5]: no detectable decomposition

WT-reverse (TEDADVLLALDLLLLPTTFLWDAYRAWYPNQECA)
Findings: Inserts into membrane, times faster than WT [6]: Inserts into membrane 10 times

O=C(CCCC[C@@H]1SC[C@@H]2NC(=O)N[C@@H]21)NCCOCCOCCNC(=O)CCN1C(=O)C=CC1=O [maleimide-PEG2-biotin]
log P (octanol/water) [7]: −1.07±0.02

H-GGEQNPIYWARYADWLFTTPLLLLDLALLVDADEGT-OH [pHLIP]
recruitment of anti-DNP antibodies, pH 6.2 versus pH 7.4 (times more) (HeLa cells [8]): not capable of significantly recruiting
inhibitory effect on HeLa proliferation (HeLa cells [4]): no inhibition of proliferation was observed
pH range over which titration occurs: ~1 pH unit
interfacial helix formation time [9]: 0.1 s
toxic effects in mice (GFP fluorescent tumors): did not induce any toxic effects
oligomer share of total population [10]: ~6%
adverse effects [11]: did not show any adverse effects

CC[C@H](C)[C@@H]1NC(=O)CNC(=O)[C@@H]2Cc3c([nH]c4cc(O)ccc34)[S@+]([O-])C[C@H](NC(=O)CNC1=O)C(=O)N[C@@H](CC(N)=O)C(=O)N1C[C@H](O)C[C@H]1C(=O)N[C@@H]([C@@H](C)[C@@H](O)CO)C(=O)N2 [amanitin, α-amanitin]
cell growth after treatment (ECIS) (HeLa cells [12]): continue to grow

CC1NC(=O)C(CC(C)(O)CO)NC(=O)C2Cc3c([nH]c4ccccc34)SCC(NC(=O)C(C(C)O)NC1=O)C(=O)N1CC(O)CC1C(=O)NC(C)C(=O)N2 (stereo not drawn) [phalloidin] (cyclo([X1]ATC[Hyp]A[ξTrp(2-yl)]); thioether 4-7; configuration not given here)
Kd (actin filaments): < 40 nM
inhibitory effect on HeLa proliferation (HeLa cells [4]): no inhibitory effect
logP (physchem [13]): -1.5
inhibitory effect on M4A4 proliferation (M4A4 cells): no inhibitory effect

gold nanoparticles
amount of gold, Bladder (HeLa tumors): 0.010 ± 0.094 % of injected dose per gram of tissue
amount of gold, Blood (HeLa tumors): 0.028 ± 0.028 % of injected dose per gram of tissue
amount of gold, Heart (HeLa tumors): 0.075 ± 0.010 % of injected dose per gram of tissue
amount of gold, Intestine (HeLa tumors): 0.034 ± 0.021 % of injected dose per gram of tissue
amount of gold, Kidney (HeLa tumors): 1.561 ± 0.098 % of injected dose per gram of tissue
amount of gold, Liver (HeLa tumors): 0.082 ± 0.082 % of injected dose per gram of tissue
amount of gold, Lung (HeLa tumors): 0.119 ± 0.025 % of injected dose per gram of tissue
amount of gold, Muscle (HeLa tumors): 1.836 ± 0.071 % of injected dose per gram of tissue
amount of gold, Skin (HeLa tumors): 0.129 ± 0.041 % of injected dose per gram of tissue
amount of gold, Spleen (HeLa tumors): 0.097 ± 0.039 % of injected dose per gram of tissue
amount of gold, Stomach (HeLa tumors): 0.012-30.011 % of injected dose per gram of tissue
amount of gold, Bladder (HeLa tumors; iv): 0.050 ± 0.050 % of injected dose per gram of tissue
amount of gold, Blood (HeLa tumors; iv): 0.091 ± 0.020 % of injected dose per gram of tissue
amount of gold, Heart (HeLa tumors; iv): 0.069 ± 0.004 % of injected dose per gram of tissue
amount of gold, Intestine (HeLa tumors; iv): 0.073 ± 0.002 % of injected dose per gram of tissue
amount of gold, Kidney (HeLa tumors; iv): 1.206 ± 0.078 % of injected dose per gram of tissue
amount of gold, Liver (HeLa tumors; iv): 0.392 ± 0.031 % of injected dose per gram of tissue
amount of gold, Lung (HeLa tumors; iv): 0.128 ± 0.000 % of injected dose per gram of tissue
amount of gold, Muscle (HeLa tumors; iv): 0.053 ± 0.005 % of injected dose per gram of tissue
amount of gold, Skin (HeLa tumors; iv): 0.204 ± 0.029 % of injected dose per gram of tissue
amount of gold, Spleen (HeLa tumors; iv): 0.089 ± 0.045 % of injected dose per gram of tissue
amount of gold, Stomach (HeLa tumors; iv): 0.081 ± 0.000 % of injected dose per gram of tissue
LD50 [14]: approximately 3.2 g Au kg^−1

CC[C@H](C)[C@H](NC(=O)[C@@H]1CCCN1C(=O)[C@H](CC(N)=O)NC(=O)[C@H](CCC(N)=O)NC(=O)[C@H](CCC(=O)O)NC(=O)CNC(=O)CN)C(=O)N[C@@H](Cc1ccc(O)cc1)C(=O)N[C@@H](Cc1c[nH]c2ccccc12)C(=O)N[C@@H](C)C(=O)N[C@@H](CCC(N)=O)C(=O)N[C@@H](Cc1ccc(O)cc1)C(=O)N[C@@H](C)C(=O)N[C@@H](CC(=O)O)C(=O)N[C@@H](Cc1c[nH]c2ccccc12)C(=O)N[C@@H](CC(C)C)C(=O)N[C@@H](Cc1ccccc1)C(=O)N[C@H](C(=O)N[C@H](C(=O)N1CCC[C@H]1C(=O)N[C@@H](CC(C)C)C(=O)N[C@@H](CC(C)C)C(=O)N[C@@H](CC(C)C)C(=O)N[C@@H](CC(C)C)C(=O)N[C@@H](CC(=O)O)C(=O)N[C@@H](CC(C)C)C(=O)N[C@@H](C)C(=O)N[C@@H](CC(C)C)C(=O)N[C@@H](CC(C)C)C(=O)N[C@H](C(=O)N[C@@H](CC(=O)O)C(=O)N[C@@H](C)C(=O)N[C@@H](CC(=O)O)C(=O)N[C@@H](CCC(=O)O)C(=O)NCC(=O)N[C@H](C(=O)N[C@@H](CS)C(=O)NCC(=O)O)[C@@H](C)O)C(C)C)[C@@H](C)O)[C@@H](C)O [R11Q]
Notes: solubility [15]: Has better solubility
